Columns and labels:
[1] = system: sensitive L5178Y mouse T-lymphoma cells (PAR); assay: MTT antiproliferative assay, sensitive cells; format: cell-based; conditions: 72 h, mean ± SD
Description: (§1) Non-cancer mouse embryonic fibroblasts (NIH/3T3) were also used.
(§2) L5178Y mouse T-lymphoma cells (ECACC catalog no. 87111908, US FDA, Silver Spring, MD, USA) were transfected with the pHa MDR1/A retrovirus as previously reported. The ABCB1 (P-gp) overexpressing cells were selected by culturing the infected cells with 60 ng/mL of colchicine (Sigma-Aldrich Chemie GmbH, Steinheim, Germany) to preserve the MDR phenotype. L5178Y (parental, PAR) mouse T-cell lymphoma cells and the human ABCB1-transfected subline were cultured in McCoy’s 5A supplemented with 10% heat-inactivated horse serum, 100 U/L L-glutamine, and 100 mg/L penicillin-streptomycin mixture, all obtained from Sigma-Aldrich. The mouse embryonic fibroblast (NIH 3T3) cell line was purchased from ATCC (CRL-1658) and was cultured in DMEM medium supplemented with 10% fetal bovine serum. These adherent cells were detached using 0.25% trypsin and 0.02% EDTA for 5 min at 37 °C. Before the antiproliferative assay using NIH 3T3 cell line, the cells were seeded in untreated 96-well flat bottomed microtiter plates, following a 4 h incubation period in a humidified atmosphere (5% CO2, 95% air) at 37 °C.
The assay was performed according to the previously applied experimental settings.

[2] = system: mouse embryonic fibroblasts (NIH/3T3); assay: MTT antiproliferative assay, non-cancer cells; format: cell-based; conditions: for SI C/B (Selectivity Index): IC50 NIH/3T3 / IC50 MDR; for SI C/A (Selectivity Index): IC50 NIH/3T3 / IC50 PAR; for IC50: NIH3T3, non-cancer mouse embryonic fibroblasts, MTT, read-out: IC50 NIH/3T3 (C)
Description: as §1
In addition, the antiproliferative activity of the compounds was also evaluated on non-cancerous mouse embryonic fibroblast cells (NIH/3T3), whose values were compared with those of PAR and MDR cells by evaluation of the selective index (SI) values. […] The highest selective index values (SIC/A = 9.39; SIC/B = 10.79) were found for the derivative bearing the trimethoxyphenyl substituent (17).
as §2

[3] = system: human ABCB1-transfected L5178Y mouse lymphoma cells; assay: Checkerboard combination assay with doxorubicin; format: cell-based; parameters: key to CI at ED50 (combination index): CI <1 synergy, =1 additive, >1 antagonism; conditions: MDR cells; for CI at ED50 (combination index): best ratio
Description: The in vitro interactions between the compounds and the well-known antitumor drug and P-gp substrate, doxorubicin, were evaluated in a combination chemotherapy model on human ABCB1-transfected mouse T-lymphoma cells. The nature of drug–drug interactions was assessed by determination of the combination index (CI) using the Chou and Talalay method (Figure 1), and therefore evaluated as synergistic (CI < 1), additive (CI = 1), or antagonistic (CI > 1).
Doxorubicin (2 mg/mL, Teva Pharmaceuticals, Budapest, Hungary) was serially diluted horizontally in 100 µL as previously described, starting with 8.6 µM. The resistance modifier was subsequently diluted vertically in 50 µL; the starting concentration was determined based on the IC50. […] The checkerboard plates were kept for 72 h at 37 °C in a CO2 incubator, and at the end of the incubation period, the cell growth was determined by MTT staining method, as described earlier. Drug interactions were evaluated using Calcusyn software. Each dose–response curve (for individual agents as well as combinations) was fit to a linear model using the median effect equation in order to obtain the median effect value (corresponding to the IC50) and slope (m). The goodness-of-fit was assessed using the linear correlation coefficient, r, and only data from analysis with r > 0.90 were presented. The extent of interaction between drugs was expressed using the combination index, in which a CI value close to 1 indicates additivity, while a CI < 1 is defined as synergy and a CI > 1 as antagonism.

[4] = target: T1, recombinant human P-gp membranes (Homo sapiens, UniProt P08183); assay: P-gp ATPase activity assay (Pgp-Glo); format: biochemical; conditions: 25 µM; for % basal P-gp activity: basal activity = 100%
T1 construct: purchased Promega
T1 sequence (P08183 whole entry): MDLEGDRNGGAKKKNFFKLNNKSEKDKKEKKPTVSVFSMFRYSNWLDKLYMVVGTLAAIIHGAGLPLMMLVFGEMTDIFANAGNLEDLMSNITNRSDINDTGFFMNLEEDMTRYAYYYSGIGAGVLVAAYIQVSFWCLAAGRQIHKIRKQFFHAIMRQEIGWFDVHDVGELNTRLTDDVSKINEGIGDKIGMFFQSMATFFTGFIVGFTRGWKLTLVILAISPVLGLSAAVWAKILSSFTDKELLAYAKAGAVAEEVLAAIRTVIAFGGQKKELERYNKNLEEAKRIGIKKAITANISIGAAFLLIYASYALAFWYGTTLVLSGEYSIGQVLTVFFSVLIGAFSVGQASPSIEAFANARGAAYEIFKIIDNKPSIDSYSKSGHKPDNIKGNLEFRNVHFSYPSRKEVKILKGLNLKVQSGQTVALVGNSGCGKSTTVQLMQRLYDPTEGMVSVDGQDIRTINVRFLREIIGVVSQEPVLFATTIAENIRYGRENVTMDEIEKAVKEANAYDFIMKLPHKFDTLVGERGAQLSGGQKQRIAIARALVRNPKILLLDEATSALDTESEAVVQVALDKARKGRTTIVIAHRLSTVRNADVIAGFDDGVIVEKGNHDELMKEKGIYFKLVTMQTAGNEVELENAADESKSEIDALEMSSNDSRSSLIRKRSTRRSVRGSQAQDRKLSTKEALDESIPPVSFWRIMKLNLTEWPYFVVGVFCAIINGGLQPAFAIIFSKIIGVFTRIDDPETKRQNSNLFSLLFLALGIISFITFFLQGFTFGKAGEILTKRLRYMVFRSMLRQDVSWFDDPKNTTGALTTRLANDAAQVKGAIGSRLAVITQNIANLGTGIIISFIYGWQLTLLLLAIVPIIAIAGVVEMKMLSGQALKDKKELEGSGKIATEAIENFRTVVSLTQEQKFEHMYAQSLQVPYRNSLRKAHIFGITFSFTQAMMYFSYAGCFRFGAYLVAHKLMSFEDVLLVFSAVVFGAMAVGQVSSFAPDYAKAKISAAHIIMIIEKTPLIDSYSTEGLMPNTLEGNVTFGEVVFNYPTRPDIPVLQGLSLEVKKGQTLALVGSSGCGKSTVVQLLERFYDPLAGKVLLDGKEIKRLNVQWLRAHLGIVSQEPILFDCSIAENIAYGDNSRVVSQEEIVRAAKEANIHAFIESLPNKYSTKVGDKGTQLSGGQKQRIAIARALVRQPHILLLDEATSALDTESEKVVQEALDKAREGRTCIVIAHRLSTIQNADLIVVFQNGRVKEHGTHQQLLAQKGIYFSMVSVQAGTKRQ
Text: Once it was established that ATP hydrolysis is directly associated with the P-gp efflux activity, the interaction mode between selected compounds (12, 17, 18, 20, and 29) and this transporter protein was further investigated using human P-gp membranes in the ATPase activity assay (P-gp-Glo^TM) to gather insights about their interaction with P-gp activity, namely, as stimulators or inhibitors. This ATPase activity assay is based on the ATP dependence of the light-generating reaction of firefly luciferase. After incubating P-gp with ATP, the reaction is stopped, and the ATP consumption by P-gp is given by a luciferase-generated luminescent signal due to the remaining unmetabolized ATP. Thus, a greater decrease in the signal means a higher P-gp activity.
Sodium orthovanadate (Vanadate, Na3VO4) is an inhibitor of P-gp ATPase activity; thus, after treating samples with vanadate, no P-gp-dependent ATP consumption is observed. Therefore, the P-gp basal ATP consumption (basal activity) is defined as the difference between the luminescent signal of samples treated with vanadate and untreated. Consequently, the tested compounds were ranked as stimulators or inhibitors by comparing their P-gp ATPase activity with the basal activity. Verapamil (0.5 mM), a known P-gp substrate and activator of the ATPase activity of this transporter, thus causing a decrease in the percentage of luminescence of luciferase when compared with untreated samples (Figure 2), was used as control. The results are represented in Figure 2 as the difference between the luminescence of luciferase observed when treated with the compounds and with vanadate in comparison with the basal activity (100%).
The P-glycoprotein ATPase activity was determined using the Pgp-Glo^TM Assay Systems Promega kit according to the manufacturer’s instructions. Briefly, 20 µL of recombinant human P-gp membranes (1.25 mg/mL), expressing high levels of human P-gp, were incubated in 20 µL of Pgp-Glo^TM assay buffer for 5 min at 37 °C. Compounds were tested at 25 µM sodium orthovanadate (Na3VO4, 0.25 mM) as an inhibitor control, verapamil as a substrate control (0.5 mM), and DMSO at 2% as solvent control. The reaction was initiated by adding 10 µL of 25 mM MgATP and incubated at 37 °C for 40 min. The ATPase reaction was stopped, and after adding 50 µL of ATP Detection Reagent, the samples were incubated at room temperature for 20 min. The luciferase-generated luminescent signal emitted was measured in a CLARIOstar Plus plate reader (BMG Labtech, UK) at 580 nm. The % of basal P-gp activity was calculated through the ratio between the luminescence measured of the P-gp ATPase activity of each compound and the basal activity according to Equation (4).
(4) % basal P-gp activity = LumNa3VO4−Lumtreated/LumNa3VO4−Lumuntreated×100%
Figure 2 Effect of compounds 12, 17, 18, 20, 29, and verapamil (VER) on P-gp ATPase activity. The compounds are identified as P-gp substrates if they stimulate its basal activity (>100%) or as modulators when inhibiting basal activity (<100%). Compounds were tested at 25 µM and verapamil at 0.5 mM. Results were calculated as the means ± SD from experiments performed in triplicates.

[5] = system: human ABCB1-gene transfected L5178Y subline (MDR); conditions: for RR (relative resistance ratio) = IC50MDR/IC50PAR: RR ≤ 0.5 means CS effect

SMILES | IC50 [1] [µM] | SI C/B (Selectivity Index) [2] | SI C/A (Selectivity Index) [2] | IC50 [2] [µM] | Interaction [3] | CI at ED50 (combination index) [3] | Effect on P-gp ATPase activity [4] | % basal P-gp activity [4] [%] | IC50 [5] [µM] | RR (relative resistance ratio) = IC50MDR/IC50PAR [5]
CCC1CN(C)C2Cc3c([nH]c4ccccc34)C(=NN=Cc3ccc4ccccc4c3)CC1C2C(=O)OC (centres unmarked) [Compound 18, 3-[(2″-naphthalenylmethylene)hydrazineylidene]dregamine] | 11.3 ± 0.84 | 1.22 | 1.04 | 11.7 ± 1.53 | Strong Synergism | 0.285 | inhibitors of P-gp ATPase activity | < 100 | 9.58 ± 0.74 | 0.85
CCC1CN(C)C2Cc3c([nH]c4ccccc34)C(=NNC(=O)Nc3ccc(Br)cc3)CC1C2C(=O)OC (centres unmarked) [Compound 29, 3-[2″-((4‴-bromophenyl)carbamoyl)hydrazineylidene]dregamine] | 6.56 ± 0.04 | 1.76 | 1.99 | 13 ± 0.4 | Strong Synergism | 0.173 | inhibitors of P-gp ATPase activity | < 100 | 7.4 ± 0.2 | 1.13
